Like-named read-outs stand apart in the source and are kept apart here.
Key:
in vitro [1] = assay: in vitro; set-up: species or system CCD841, HEK293; conditions: human, hb2 cells, read-out: HB-2 Cells Viability (%)
OTUB2 (OTUB2A) = target: T1, OTUB2 (OTUB2A) (Homo sapiens, UniProt Q96DC9); set-up: Intact protein LC/MS covalent labelling, fragments in pools of five, 200 uM each, 4 °C; conditions: 24 h, 4 °C, pool of five; 200 µM; covalent
T1 construct: full length residues 1-234, E. coli BL21(DE3)-R3, His tag removed by TEV, construct 27312 Da
T1 sequence (Q96DC9 1-234): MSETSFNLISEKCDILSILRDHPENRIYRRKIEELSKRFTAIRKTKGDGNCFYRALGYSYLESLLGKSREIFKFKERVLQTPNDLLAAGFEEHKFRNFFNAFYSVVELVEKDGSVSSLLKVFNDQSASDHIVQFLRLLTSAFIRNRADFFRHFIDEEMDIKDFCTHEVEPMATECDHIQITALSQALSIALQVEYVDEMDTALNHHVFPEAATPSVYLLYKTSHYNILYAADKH

PCAF = target: T2, PCAF (Homo sapiens, UniProt Q92831); set-up: Intact protein LC/MS covalent labelling, fragments in pools of five, 200 uM each, 4 °C; conditions: 24 h, 4 °C, pool of five; 200 µM; covalent
T2 construct: gene KAT2B
T2 sequence (Q92831 whole entry, the tested form may be a part): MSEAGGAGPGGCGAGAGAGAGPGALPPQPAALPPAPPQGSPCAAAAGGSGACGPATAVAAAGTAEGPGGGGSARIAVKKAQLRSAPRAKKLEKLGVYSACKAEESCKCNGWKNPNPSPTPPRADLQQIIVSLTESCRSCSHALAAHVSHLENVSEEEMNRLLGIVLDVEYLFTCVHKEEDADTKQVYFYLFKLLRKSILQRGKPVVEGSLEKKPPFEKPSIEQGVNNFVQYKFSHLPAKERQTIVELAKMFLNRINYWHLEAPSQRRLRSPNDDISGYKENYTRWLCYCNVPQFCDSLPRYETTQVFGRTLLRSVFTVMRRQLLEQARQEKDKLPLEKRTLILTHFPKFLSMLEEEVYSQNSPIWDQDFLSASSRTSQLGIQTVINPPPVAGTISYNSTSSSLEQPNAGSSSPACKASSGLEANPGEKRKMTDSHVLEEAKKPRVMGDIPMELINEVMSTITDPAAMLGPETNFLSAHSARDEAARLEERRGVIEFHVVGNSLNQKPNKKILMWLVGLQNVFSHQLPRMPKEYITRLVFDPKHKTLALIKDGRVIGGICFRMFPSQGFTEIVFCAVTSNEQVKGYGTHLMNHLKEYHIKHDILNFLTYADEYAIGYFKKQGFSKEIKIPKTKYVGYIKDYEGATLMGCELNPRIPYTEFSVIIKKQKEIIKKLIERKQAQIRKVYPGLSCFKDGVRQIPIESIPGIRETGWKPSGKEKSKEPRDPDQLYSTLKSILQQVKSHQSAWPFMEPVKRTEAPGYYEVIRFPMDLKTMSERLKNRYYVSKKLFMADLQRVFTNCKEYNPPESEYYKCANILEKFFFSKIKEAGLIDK

NUDT7 = target: T3, NUDT7 (Homo sapiens, UniProt P0C024); set-up: Intact protein LC/MS covalent labelling, fragments in pools of five, 200 uM each, 4 °C; conditions: 24 h, 4 °C, pool of five; 200 µM; covalent
T3 construct: residues 14-235, E. coli, pNIC28-Bsa4, N-terminal His6 tag removed by TEV, construct 26672 Da
T3 sequence (P0C024 14-235): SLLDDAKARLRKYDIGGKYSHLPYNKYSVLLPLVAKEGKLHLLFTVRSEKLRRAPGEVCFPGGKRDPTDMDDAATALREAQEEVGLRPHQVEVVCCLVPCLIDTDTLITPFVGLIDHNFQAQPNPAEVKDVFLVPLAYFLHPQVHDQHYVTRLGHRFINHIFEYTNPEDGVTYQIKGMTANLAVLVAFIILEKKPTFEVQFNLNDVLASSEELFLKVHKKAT

BSA = target: T4, BSA (Bos taurus, UniProt P02769); set-up: Intact protein LC/MS covalent labelling, fragments in pools of five, 200 uM each, 4 °C; conditions: 24 h, 4 °C, pool of five; 200 µM; covalent
T4 construct: gene ALB
T4 sequence (P02769 whole entry, the tested form may be a part): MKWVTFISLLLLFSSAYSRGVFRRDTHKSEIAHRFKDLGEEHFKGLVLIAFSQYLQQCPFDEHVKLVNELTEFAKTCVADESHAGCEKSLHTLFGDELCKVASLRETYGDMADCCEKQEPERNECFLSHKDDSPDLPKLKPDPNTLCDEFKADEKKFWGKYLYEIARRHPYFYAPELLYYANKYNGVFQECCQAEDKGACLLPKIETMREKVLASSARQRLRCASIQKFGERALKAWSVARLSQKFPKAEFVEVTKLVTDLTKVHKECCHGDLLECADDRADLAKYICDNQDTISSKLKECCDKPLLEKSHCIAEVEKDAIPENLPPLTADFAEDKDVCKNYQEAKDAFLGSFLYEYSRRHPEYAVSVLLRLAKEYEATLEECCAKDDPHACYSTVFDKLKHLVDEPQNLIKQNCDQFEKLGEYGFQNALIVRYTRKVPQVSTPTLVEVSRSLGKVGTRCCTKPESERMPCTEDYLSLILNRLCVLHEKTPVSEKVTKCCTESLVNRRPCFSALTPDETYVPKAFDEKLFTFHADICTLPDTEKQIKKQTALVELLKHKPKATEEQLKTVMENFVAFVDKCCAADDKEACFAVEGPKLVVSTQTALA

in vitro [2] = assay: in vitro; set-up: species or system HB2, HEK293; conditions: human, ccd841 cells
in vitro [3] = assay: in vitro; set-up: species or system HB2, CCD841; conditions: human, hek293 cells

| Compound | viability at 48 h, 10 µM (in vitro [1]) | OTUB2 (OTUB2 (OTUB2A)) | PCAF (PCAF) | NUDT7 (NUDT7) | BSA (BSA) | viability at 48 h, 10 µM (in vitro [2]) | viability at 48 h, 10 µM (in vitro [3]) |
| --- | --- | --- | --- | --- | --- | --- | --- |
| Cc1ccc(S(C)(=O)=O)cc1NC(=O)CCl [PCM-0102858] | 58.6% | 0 | 0 | 0 | 0 | 66.6% | 19.2% |
| O=C(CCl)Nc1ccccc1N1CCCCC1 [PCM-0102860] | 111% | 0 | 0 | 0 | 0 | 109% | 97.5% |
| Cn1cccc1C(=O)NC(=O)CCl [PCM-0102863] | 106% | 0 | 0 | 0 | 0.2 | 112% | 92.2% |
| CN(Cc1ccsc1)C(=O)CCl [PCM-0102865] | 49.6% | 0 | 0 | 0.09 | 0 | 76.1% | 34% |
| O=C(CCl)N(c1ccc(F)cc1)C1C=CS(=O)(=O)C1 (centres unmarked) [PCM-0102868] | 27.9% | 0 | 0 | 0.34 | 0 | 33.4% | 6.2% |
| CN(C(=O)CCl)C1=CCCC1 [PCM-0102869] | 111% | 0 | 0 | 0 | 0 | 110% | 101% |
| O=C(CCl)N1CCOCC1C1CC1 (centres unmarked) [PCM-0102870] | 80.6% | 0 | 0 | 0.17 | 0 | 89.5% | 56.7% |
| Cc1csc(NC(=O)CCl)n1.Cl [PCM-0102872] | 90.4% | 0 | 0 | 0.16 | 0 | 94.9% | 91.9% |
| O=C(CCl)Nc1cc(F)cc(F)c1 [PCM-0102874] | 14.3% | 0 | 0 | 0.18 | 0 | 58.3% | 3.1% |
| N#Cc1ccc(NC(=O)CCl)cc1 [PCM-0102875] | 36.6% | 0.08 | 0 | 0.14 | 0 | 46% | 4.3% |
| CN(C)C(=O)c1ccc(NC(=O)CCl)cc1 [PCM-0102877] | 67.6% | 0 | 0 | 0 | 0 | 61.7% | 30.5% |
| Cc1cc(C)c(C(C)NC(=O)CCl)cc1C (centres unmarked) [PCM-0102879] | 87.3% | 0.17 | 0 | 0 | 0 | 83.7% | 59.6% |
| COC(=O)C1CN(C(=O)CCl)c2ccccc2O1 (centres unmarked) [PCM-0102880] | 112% | 0.11 | 0 | 0 | 0 | 96.4% | 97.5% |
| O=C(CCl)NCC1COc2ccccc2O1 (centres unmarked) [PCM-0102881] | 81% | 0.39 | 0 | 0 | 0 | 76.2% | 56.3% |
| C=CC(=O)NC1CNC(=O)C1 (centres unmarked) [PCM-0102882] | 108% | 0 | 0 | 0 | 0 | 99.1% | 97.3% |
| Cc1ccccc1NC(=O)CCl [PCM-0102887] | 90.2% | 0 | 0 | 0 | 0 | 69.6% | 55.1% |
| C=CC(=O)N1CCN(C(C)C)c2ccccc2C1 [PCM-0102888] | 108% | 0 | 0 | 0 | 0 | 93.1% | 101% |
